This passage reports EC50 and inhibition results from patent US20120053148A1, “INHIBITORS OF HEPATITIS C VIRUS” (GILEAD SCIENCES, INC., priority 2010, published 2012).

pEC50: −log10 of the molar value.

The subject of this assay is HCV Replicon IB. Kind of assay: HCV replicon assay in Huh-7 cells, genotype 1b (Rluc luciferase readout). The conditions noted are these: Hepatitis C virus, Huh-7 cells, 3 days; for pEC50: Huh-7, 72 h, HCV1B replicon, read-out: EC50_HCV1B_; for inhibition at 10 µM: 72 h, 1b-Rluc replicon, read-out: Inhibition @ 10 uM in 1b-Rluc. The format is cell-based, hepatitis C virus.

For the compound `CC(C)(C)c1cc(C2CC2)cc2c(N)cc(-c3nnc(Nc4cccc(S(N)(=O)=O)c4)o3)nc12` [Compound 357], the pEC50 is 6.45.

Take `Cc1cc(-c2nnc(Nc3cn[nH]c3)s2)nc2c(C(C)(C)C)cc(C3CC3)cc12` [Compound 382]: the pEC50 is 7.85. Regarding `Cc1cc(C(=O)NCc2cc(CN3CCOCC3)ccn2)nc2c(C(F)(F)F)cc(C3CC3)cc12` [Compound 130], the inhibition at 10 µM was determined as 84.7%. Still for that read-out and setting: the result for `CS(=O)(=O)Nc1nc(C(=O)NCc2cccs2)nc2c(C(F)(F)F)cc(-c3ccccc3)cc12` [Compound 222] reads 95.1%; that for `Cc1cc(-c2nnc(NCC3OCCO3)o2)nc2c(C(F)(F)F)cc(OCC(F)(F)F)cc12` [Compound 280], 99.9%; that for `Cc1cc(C(=O)NCC#N)nc2c(C(F)(F)F)cc(-c3ccccc3)cc12` [Compound 105], 82.8%. The same measure, in the same setting: the result for `Cc1cc(C(=O)NCC2CCCC(=O)N2)nc2c(C(F)(F)F)cc(C3CC3)cc12` (stereo not shown) [Compound 91] reads 92.7%. With `Cc1cc(-c2nnc(NCC3OCCO3)o2)nc2c(S(C)(=O)=O)cc(C3CC3)cc12` [Compound 547], the pEC50 is 6.73. For the compound `Cc1cc(-c2nnc(NCCS(=O)(=O)N(C)C)o2)nc2c(C(F)(F)F)cc(C3CC3)cc12` [Compound 270], the inhibition at 10 µM was found to be 84.7%. With `Cc1cc(C(=O)N/C=C/Cc2ccccc2)nc2c(C(F)(F)F)cc(-c3ccccc3)cc12` [Compound 171], the inhibition at 10 µM stood at 92.5%. With `Cc1cc(-c2nnc(N[C@H]3C[C@](O)(CF)C3)o2)nc2c(C(C)(C)C)cc(OCC(F)(F)F)cc12` [Compound 467], the pEC50 was 9.20. With `CC(C)(C)c1cc(C2CC2)cc2c(N)cc(-c3nnc(NCCS(N)(=O)=O)o3)nc12` [Compound 351], the pEC50 was 7.62. `Cc1cc(C(=O)NCCCN2CC(O)C2)nc2c(C(F)(F)F)cc(C3CC3)cc12` [Compound 126]: the inhibition at 10 µM turned out to be 90.1%. In the case of `Cc1cc(-c2nnc(Nc3ccccc3)[nH]2)nc2c(C(F)(F)F)cc(C3CC3)cc12` [Compound 272], the inhibition at 10 µM turned out to be 93.6%. For `Cc1cc(-c2nnc(NC3CC(O)C3)o2)nc2c(C(C)(C)C)cc(OCC(F)(F)F)cc12` (stereo not shown) [Compound 461], the pEC50 was 8.86. Same read-out and setting: the result for `Cc1cc(-c2nnc(NC3CCOCC3)o2)nc2c(C(C)(C)C)cc(OCC(F)(F)F)cc12` [Compound 488] reads 8.17. Regarding `CSC(F)(F)Oc1cc(C(C)(C)C)c2nc(-c3nnc(N[C@H]4C[C@](O)(CF)C4)o3)cc(C)c2c1` [Compound 530], the pEC50 is 8.55. On the same count and under the same terms, the result for `CCCCNc1nnc(-c2cc(N)c3cc(C4CC4)cc(C(C)(C)C)c3n2)s1` [Compound 376] reads 9.07. On the same count and under the same terms, the result for `Cc1cc(-c2nnc(N[C@@H]3CCOC3)o2)nc2c(C(C)(C)C)cc(C3CC3)cc12` [Compound 405] reads 8.28; that for `Nc1cc(C(=O)NC[C@H]2CC(F)(F)CCN2)nc2c(C(F)(F)F)cc(OC(F)F)cc12` [Compound 315], 7.08. `CO[C@H]1CN[C@H](CNC(=O)c2cc(C)c3cc(C4CC4)cc(C(C)(C)C)c3n2)C1` [Compound 425]: the pEC50 is 7.90. Still for that read-out and setting: the result for `Cc1cc(-c2nnc(NCC3OC[C@H](C)O3)o2)nc2c(C(C)(C)C)cc(C3CC3)cc12` (stereo partly shown) [Compound 412] reads 7.44. In the case of `Cc1cc(C(=O)NCC2(C)COC2)nc2c(C(F)(F)F)cc(C3CC3)cc12` [Compound 103], the inhibition at 10 µM was found to be 96.1%. Same read-out and setting: the result for `CC(=O)N(C)c1cc(C(F)(F)F)c2nc(C(=O)NCc3ccccn3)cc(C)c2c1` [Compound 180] reads 65.5%. With `Cc1cc(-c2nnc(N[C@H]3C[C@@H](O)C3)o2)nc2c(C(C)(C)C)cc(OCCF)cc12` [Compound 535], the pEC50 is 8.60. Take `Nc1cc(C(=O)NCC2(O)CC2)nc2c(C(F)(F)F)cc(C3CC3)cc12` [Compound 221]: the inhibition at 10 µM was determined as 98.8%.

As to `Cc1cc(C(=O)NCc2ccccn2)nc2c(C(F)(F)F)cc(C3CC3)cc12` [Compound 79], the inhibition at 10 µM turned out to be 100%. The same measure, in the same setting: the result for `Cc1cc(C(=O)NC[C@@H]2CC(O)CN2)nc2c(C(F)(F)F)cc(OC(F)F)cc12` (stereo partly shown) [Compound 191] reads 50.2%. Turning to `CC(=O)c1cc(C2CC2)cc2c(C)cc(-c3nnc(NCC4OCCO4)o3)nc12` [Compound 541], the pEC50 is 7.73. On to `Cc1cc(-c2nnc(NCC3OCCO3)o2)nc2c(C(F)(F)F)cc(C3CC3)cc12` [Compound 246], for which the inhibition at 10 µM turned out to be 100%.

In the case of `Cc1cc(-c2nnc(N[C@H]3C[C@@](O)(CO)C3)o2)nc2c(C(C)(C)C)cc(OCC(F)(F)F)cc12` [Compound 500], the pEC50 is 8.12.

Consider `Cc1cc(-c2nnc(NCCOCCO)s2)nc2c(C(F)(F)F)cc(C3CC3)cc12` [Compound 292], for which the inhibition at 10 µM stood at 97.9%.

`CC(C)(C)c1cc(C2CC2)cc2c(N)cc(C(=O)NC[C@@H]3CSCN3)nc12` [Compound 336]: the pEC50 is 8.35. Still for that read-out and setting: the result for `Cc1cc(-c2nnc(NCC(=O)N(C)C)o2)nc2c(C(C)(C)C)cc(OCC(F)(F)F)cc12` [Compound 453] reads 7.83; that for `Cc1cc(OC(F)(F)F)c2nc(C(=O)NCc3ncccn3)cc(C)c2c1` [Compound 446], 6.28; that for `Cc1cc(-c2nnc(NCC3(C)COC3)o2)nc2c(C(C)(C)C)cc(OCC(F)(F)F)cc12` [Compound 486], 5.73.

Regarding `Cc1cc(-c2nnc(NCC3OCCO3)o2)nc2c(OC(F)(F)F)cc(OCC(F)(F)F)cc12` [Compound 539], the pEC50 was 8.39. `Cc1cc(C(=O)NCc2ccccn2)nc2c(C(F)(F)F)cc(C3=CCCC3)cc12` [Compound 149]: the inhibition at 10 µM came to 99.4%. As for `Cc1cc(-c2nnc(NCc3ncc[nH]3)o2)nc2c(C(F)(F)F)cc(C3CC3)cc12` [Compound 257], the inhibition at 10 µM amounted to 99.7%. As to `Cc1cc(C(=O)NCCO)nc2c(C(F)(F)F)cc(-c3ccccc3)cc12` [Compound 166], the inhibition at 10 µM was found to be 93.8%. Turning to `Cc1cc(-c2nnc(NCC3CC(F)(F)CN3)s2)nc2c(C(F)(F)F)cc(C3CC3)cc12` (stereo not shown) [Compound 310], the pEC50 was 5.80. Regarding `Cc1cc(-c2nnc(NCCCOP(=O)(O)O)s2)nc2c(C(F)(F)F)cc(C3CC3)cc12` [Compound 287], the inhibition at 10 µM is 99.9%. Take `CCCO[C@H]1CN[C@H](CNC(=O)c2cc(N)c3cc(C4CC4)cc(C(C)(C)C)c3n2)C1` [Compound 331]: the pEC50 is 6.61. Still for that read-out and setting: the result for `Cc1cc(-c2nnc(NCC3OCCO3)o2)nc2c(C(C)(C)C)cc(OCC(F)(F)C(F)(F)F)cc12` [Compound 523] reads 6.63.

Consider `Cc1cc(C(=O)NCC2COCCN2)nc2c(C(F)(F)F)cc(C3CC3)cc12` (stereo not shown) [Compound 100], for which the inhibition at 10 µM amounted to 99.5%. On the same count and under the same terms, the result for `Cc1cc(-c2nnc(NCC(=O)N(C)C)o2)nc2c(C(C)(C)C)cc(C3CC3)cc12` [Compound 281] reads 99.8%; that for `CC(C)(C)c1cc(C2CC2)cc2c(O)cc(C(=O)NCc3ccccn3)nc12` [Compound 227], 100%; that for `Nc1cc(C(=O)NCC2CS(=O)(=O)CCN2)nc2c(C(F)(F)F)cc(OC(F)F)cc12` (stereo not shown) [Compound 198], 98.4%. As to `COc1cc(C(F)(F)F)c2nc(-c3nnc(NCCCO)o3)cc(C)c2c1` [Compound 277], the inhibition at 10 µM is 98.2%. Consider `Cc1cc(-c2nnc(N[C@H]3CC[C@@](C)(O)C3)o2)nc2c(C(C)(C)C)cc(OCC(F)(F)F)cc12` (racemic) [Compound 474], for which the pEC50 is 8.99. Same read-out and setting: the result for `Cc1cc(-c2nnc(NCC[C@@H](C)O)o2)nc2c(C(C)(C)C)cc(OCC(F)(F)F)cc12` [Compound 455] reads 8.52. Regarding `Cc1cc(-c2nnc(NCCO)o2)nc2c(C(F)(F)F)cc(C3CC3)cc12` [Compound 255], the inhibition at 10 µM was determined as 99.4%. For `CC(C)(C)c1cc(C2CC2)cc2c(N)cc(C(=O)NCC3COC3)nc12` [Compound 337], the pEC50 was 7.16. In the case of `Cc1cc(-c2nnc(NC[C@H]3C[C@H](O)C3)o2)nc2c(C(C)(C)C)cc(C3CC3)cc12` [Compound 418], the pEC50 is 8.34. The same measure, in the same setting: the result for `Cc1cc(-c2nnc(N[C@H]3C[S@+]([O-])C3)o2)nc2c(C(C)(C)C)cc(OCC(F)(F)F)cc12` [Compound 508] reads 7.61.

`CCC(CNC(=O)c1cc(Cl)c2cc(OC(F)F)cc(C(F)(F)F)c2n1)=NOC` [Compound 206]: the inhibition at 10 µM stood at 64%. Take `Cc1cc(-c2nnc(N[C@H]3C[C@](O)(CO)C3)o2)nc2c(C(C)(C)C)cc(OCC(F)(F)F)cc12` [Compound 499]: the pEC50 is 7.78.

Take `Cc1cc(-c2nnc(N[C@H]3CC[C@@H](O)C3)o2)nc2c(C(C)(C)C)cc(C3CC3)cc12` [Compound 414]: the pEC50 is 8.76. In the case of `C#Cc1cc(OC(F)(F)F)cc2c(O)cc(C(=O)NCc3ccccn3)nc12` [Compound 237], the inhibition at 10 µM was determined as 21.7%. Same read-out and setting: the result for `O=C(NCc1ccccn1)c1cc(Cl)c2cc(C3CC3)cc(C(F)(F)F)c2n1` [Compound 210] reads 99.9%. For the compound `Cc1cc(-c2nnc(NCc3ncc[nH]3)o2)nc2c(C(C)(C)C)cc(C3CC3)cc12` [Compound 394], the pEC50 was 5.95. The same measure, in the same setting: the result for `CNC(=O)[C@@H]1CSC(c2cc(C)c3cc(OC(F)F)cc(C(F)(F)F)c3n2)=N1` [Compound 341] reads 5.45. As to `Cc1cc(C(=O)NC[C@@H]2CC3(CN2)OCCO3)nc2c(OC(F)(F)F)cc(C3CC3)cc12` [Compound 443], the pEC50 was 7.73. `Cc1cc(-c2nnc(NCCCN3CCCCC3)o2)nc2c(C(F)(F)F)cc(C3CC3)cc12` [Compound 256]: the inhibition at 10 µM was 99.4%. With `Cc1cc(-c2nnc(NCCC3OCCO3)s2)nc2c(C(F)(F)F)cc(C3CC3)cc12` [Compound 294], the inhibition at 10 µM came to 99.9%. Regarding `Cc1cc(-c2nnc(NC3CCCC3)o2)nc2c(C(F)(F)F)cc(C3CC3)cc12` [Compound 390], the pEC50 is 8.76. Turning to `Cc1cc(C(=O)NCc2ccccn2)nc2c(C(F)(F)F)cc(C3OC3(C)C)cc12` (stereo not shown) [Compound 141], the inhibition at 10 µM amounted to 94.8%.

The inhibition is the percentage by which the read-out fell short of the control.
